Test results as given in EP0645399A2, “Ribosome inactivating proteins (RIB), their method of production and medical preparation containing RIP” (priority 1993, dated 1995).

Target: T1, HIV-1 Reverse Transkriptase (Human immunodeficiency virus type 1 group M subtype B, UniProt P03366)
T1 construct: Rekombinante HIV-1 Reverse Transkriptase (66 kDa); made in house; host or cells: Escherichia coli
Experiment: HIV-1 RT test (3H-TTP incorporation, recombinant enzyme)
Format: biochemical
Conditions: positive control; read-out: IC₅₀ (HIV-1 RT)
Text: Zur Untersuchung der biologischen Aktivität wird das aufgereinigte Protein (P 1) in einem Ribosomen-Hemmtest und einem HIV-1 RT Test eingesetzt. Im Ribosomen-Hemmtest wird die Inaktivierung von Ribosomen in einem Retikulozyten-Lysat durch das erfindungsgemäße Protein gemessen (vgl. Krawetz et al., 1983). Im HIV-1 RT Test wird die Hemmung der HIV-1 Reverse Transkriptase (HIV-1 RT) durch das erfindungsgemäße Protein P 1 bestimmt (vgl. Tan et al., 1991).
Enzym: Rekombinante HIV-1 Reverse Transkriptase (66 kDa), exprimiert in Escherichia coli (vgl. Tan et al., 1991 und darin zitierte Literatur). Die Aktivität des Enzyms in RT-Testsystemen ist von viralem Enzym nicht zu unterscheiden. Protein-Konzentration: 0,11 mg/ml; Aktivität: Einbau von 238 nM TTP/mg Protein in 10 min bei 37°C. Testansatz: 50 mM Tris-HCl, pH 8,0, 150 mM KCl, 5 mM MgCl₂, 0,5 mM EGTA, 5 mM Dithiothreitol, 0,3 mM Glutathion, 2,5 µg/ml BSA, 41 µM poly(A) (Σ₂₆₀(mM) = 7,8), 9,5 µM oligo(dT)₁₂₋₁₈ (Σ₂₆₅(mM) = 5,6), 0,05% Triton X-100, 20 µm TTP und 0,5 µCi (³H)-TTP (Endvolumen 100 µl). Probenlösung: 10 µl, in H₂O oder 25 mM Tris-HCl, pH 8,4. HIV-1 RT: 10 µl (0,11 µg in Testpuffer)
Die Polymerisationsreaktion wird durch den Zusatz der HIV-1 RT-Lösung zum Testansatz gestartet. Nach einer Inkubationszeit von 1 Stunde (37°C) wird die Reaktion durch Zugabe von 25 µl einer 0,1 M EGTA-Lösung gestoppt und die Ansätze auf Eis gekühlt. […]

Compound: COc1cc2c(ccc3c4cc(OC)c(OC)cc4c[n+](C)c23)cc1O [Fagaronin-Chlorid]
- IC50: 13 µM
